One may read the IC50 as the concentration that inhibits the measured activity by half. The MIC is the lowest concentration that inhibits growth of the organism.

Converted amounts (≈) assume the structure as drawn. Like-named read-outs stand apart in the source and are kept apart here.

One assay concerns Trichomonas vaginalis. The assay can be described thus: In vitro activity against T. vaginalis (IC50 determination). Type of assay: cell-based. Conditions: 37° C., aerobic, Modified Diamonds Medium. As to the method:
The antiprotozoal e.g. antitrichomonal, activity of the compounds of the present invention may be assessed by conventional methods, for example by determining the minimum inhibition concentration (m.i.c.) or 50% inhibition level (IC50).
Modified Diamonds Medium (MDM) was prepared according to the method described in J. Kulda et al., American Journal of Obstetrics and Gynaecology 1970, 108, 908-18 and 4 cm^3 of the medium was pipetted into each of a series of tubes (usually 16 tubes). To each tube was added 0.5 cm^3 of varying concentration of a solution (usually in ethanol+MDM) or suspension of the test drug. Duplicate tubes for each drug concentration were prepared.
Finally, to each tube was added T. vaginalis (0.5 cm^3) at a concentration of 1×10^5 cm^-3,) to give a final trichomonad concentration of 1×10^4 cm^-3 in each tube. The tubes were then incubated (aerobically) at 37° C. and the resulting trichomonad numbers were counted at 24 and 48 hours using a haemacytometer.
This information was then used to determine the 50% inhibition concentration (IC50).

The subject of the next assay is Candida albicans. As to the kind of experiment: In vitro activity against Candida albicans (minimum inhibition concentration). Format: cell-based. Conditions: Yeast Nitrogen Base (YNB) broth; salt form given per compound. As to the method: The antifungal activity of the compounds of the present invention may be evaluated by determining the minimum fungistatic (inhibition) concentration (m.i.c.). This test is usually performed by preparing a series of plates or tubes containing a suitable nutrient medium, each plate or tube also containing a different concentration of the test compound and then inoculating the medium with the fungal species. After an incubation period the plates are examined visually for the presence or absence of fungal growth. The m.i.c. is the minimum concentration required to prevent fungal growth.
Minimum Inhibition Concentrations (MICs) of compounds of the present invention vs. C. albicans were determined.
The solution was filter sterilised with a 0.45 μm membrane filter unit and was then further diluted with sterile distilled water (SDW)-YNB solution: SDW (1:5).

Where [1] appears, read: 24 hr, 1×10^4 trichomonads cm^-3, read-out: IC50 24 hr.
The mark [2] stands for this setting: 48 hr, 1×10^4 trichomonads cm^-3, read-out: IC50 48 hr.

For `C=CCCOc1ccc2c(c1)CCN=C2C=Cc1ccc(Cl)cc1` [Example 45, 6-(But-3-enyloxy)-1-(4-chlorostyryl)-3,4-dihydroisoquinoline], the 50% inhibitory concentration (IC50) with Trichomonas vaginalis (setting [1]) stood at 2.2 µg/mL (≈ 6.51 µM); in the assay with Trichomonas vaginalis (setting [2]) it was 2.8 µg/mL (≈ 8.29 µM). For the same molecule, the MIC with Candida albicans came to 6.2 µg/mL.
`CCCOc1ccc2c(c1)CCN=C2C=Cc1ccc(Cl)cc1Cl` [Example 31, 1-(2,4-Dichlorostyryl)-3,4-dihydro-6-propyloxyisoquinoline]: in the assay with Candida albicans, the MIC worked out at 6.2 µg/mL.
Still for that read-out and setting: as for `CC(C)CCOc1ccc2c(c1)CCN=C2C=Cc1ccc(Cl)cc1` [Example 50, 1-(4-Chlorostyryl)-3,4-dihydro-6-(3-methylbutyloxy)-isoquinoline], the figure is 6.2 µg/mL.
Turning to `CCCCOc1ccc2c(c1)CCN=C2/C=C/c1ccsc1` [Example 107, (E)-6-Butyloxy-3,4-dihydro-1-(3-thienyl)vinylisoquinoline], the MIC in the assay with Candida albicans came to 25 µg/mL.
Regarding `C(=CC1CCCCC1)C1=NCCc2cc(OCc3ccccc3)ccc21` [Example 2, 6-Benzyloxy-1-[2-cyclohexylvinyl]-3,4-dihydroisoquinoline], the half-inhibitory concentration (IC50) in the assay on Trichomonas vaginalis (setting [1]) was found to be 1 µg/mL (≈ 2.89 µM); in the assay with Trichomonas vaginalis (setting [2]), 1.8 µg/mL (≈ 5.21 µM). Moreover, the MIC in the assay on Candida albicans was 1.6 µg/mL.
Taken in the same sequence, the figures for `CCCCOc1ccc2c(c1)CCN=C2C=Cc1ccc(C#N)cc1` [Example 13, 6-Butyloxy-3,4-dihydro-1-(4-cyanostyryl)isoquinoline] were 1.5 µg/mL (≈ 4.54 µM), 2.5 µg/mL (≈ 7.57 µM) and 6.2 µg/mL.
For the molecule `Clc1ccccc1C=CC1=NCCc2cc(OCC3CCCCC3)ccc21` [Example 39, 1-(2-Chlorostyryl)-6-cyclohexylmethoxy-3,4-dihydroisoquinoline], in the assay with Candida albicans, the minimal inhibitory concentration (MIC) was 1.6 µg/mL.
Take `N#Cc1ccc(C=CC2=NCCc3cc(OCc4ccccc4)ccc32)cc1` [Example 52, 6-Benzyloxy-1-(4-cyanostyryl)-3,4-dihydroisoquinoline]: the figures for the 50% inhibitory concentration (IC50) in the assay with Trichomonas vaginalis (setting [1]) and in the assay on Trichomonas vaginalis (setting [2]) were 2.9 µg/mL (≈ 7.96 µM) and 3.2 µg/mL (≈ 8.78 µM), respectively. The MIC in the assay with Candida albicans worked out at 6.2 µg/mL.
`C/C=C/C=C/C1=NCCc2cc(OCCCC)ccc21` [Example 128, (E,E)-6-Butyloxy-3,4-dihydro-1-(penta-1,3-dienyl)isoquinoline]: the values for the half-inhibitory concentration (IC50) in the assay on Trichomonas vaginalis (setting [1]) and in the assay on Trichomonas vaginalis (setting [2]) were 1.5 µg/mL (≈ 5.57 µM) and 1.6 µg/mL (≈ 5.94 µM), respectively. Further, the MIC in the assay on Candida albicans came out at 25 µg/mL.
In the case of `CCCCOc1ccc2c(c1)CCN=C2/C=C/C1CCCCC1` [Example 1, (E)-6-Butyloxy-1-(2-cyclohexylvinyl)-3,4-dihydroisoquinoline], the half-inhibitory concentration (IC50) in the assay with Trichomonas vaginalis (setting [1]) amounted to 1.3 µg/mL (≈ 4.17 µM); in the assay on Trichomonas vaginalis (setting [2]), 1.8 µg/mL (≈ 5.78 µM). In addition, the MIC in the assay with Candida albicans stood at 1.6 µg/mL.
Taken in the same sequence, the figures for `CCCCOc1ccc2c(c1)CCN=C2/C=C/c1c(F)c(F)c(F)c(F)c1F` [Example 23, (E)-6-Butyloxy-1-(2-pentafluorophenyl)vinyl-3,4-dihydroisoquinoline] were 1.1 µg/mL (≈ 2.78 µM), 2.3 µg/mL (≈ 5.82 µM) and 6.2 µg/mL.
The matching figures for `CCCCOc1ccc2c(c1)CCN=C2C=Cc1ccccc1` [Example 3, 6-Butyloxy-3,4-dihydro-1-styrylisoquinoline]: 3.7 µg/mL (≈ 12.1 µM), 8.8 µg/mL (≈ 28.8 µM) and 6.2 µg/mL.
On to `CC(C)COc1ccc2c(c1)CCN=C2/C=C/C1CCCCC1` [Example 5, (E)-1-(2-Cyclohexylvinyl)-3,4-dihydro-6-(2-methylpropyloxy)isoquinoline], for which the IC50 in the assay on Trichomonas vaginalis (setting [1]) amounted to 6.1 µg/mL (≈ 19.6 µM); with Trichomonas vaginalis (setting [2]), 6.4 µg/mL (≈ 20.5 µM). For the same molecule, the MIC in the assay on Candida albicans came out at 6.2 µg/mL.
On to `CCCCOc1ccc2c(c1)CCN=C2C=Cc1ccc(C)s1` [Example 144, 6-Butyloxy-3,4-dihydro-1-(2-(5-methyl-2-thienyl)vinyl)isoquinoline], for which the minimal inhibitory concentration (MIC) in the assay with Candida albicans turned out to be 1.6 µg/mL.
Regarding `CCCCOc1ccc2c(c1)CCN=C2C=Cc1ccc(Cl)cc1` [Example 22, 6-Butyloxy-1-(4-chlorostyryl)-3,4-dihydroisoquinoline], in the assay on Candida albicans, the minimum inhibitory concentration (MIC) is 3.1 µg/mL.
Regarding `CC(C)(C)CCOc1ccc2c(c1)CCN=C2C=Cc1ccc(Cl)cc1Cl` [Example 33, 1-(2,4-Dichlorostyryl)-3,4-dihydro-6-(3,3-dimethylbutyloxy)isoquinoline], the half-maximal inhibitory concentration (IC50) in the assay with Trichomonas vaginalis (setting [1]) is 0.7 µg/mL (≈ 1.74 µM); in the assay with Trichomonas vaginalis (setting [2]), 1 µg/mL (≈ 2.49 µM).
Taken in the same sequence, the figures for `O=[N+]([O-])c1ccc(C=CC2=NCCc3cc(Oc4ccc(Cl)cc4)ccc32)cc1` [Example 68, 6-(4-Chlorophenoxy)-3,4-dihydro-1-(4-nitrostyryl)-isoquinoline] were 5 µg/mL (≈ 12.4 µM) and 5.3 µg/mL (≈ 13.1 µM).
For `COc1ccc(C=CC2=NCCc3cc(OCc4ccccc4)ccc32)c(OC)c1` [Example 56, 6-Benzyloxy-3,4-dihydro-1-(2,4-dimethoxystyryl)isoquinoline], the IC50 in the assay with Trichomonas vaginalis (setting [1]) and in the assay on Trichomonas vaginalis (setting [2]) was 8 µg/mL (≈ 20 µM) in each case.
Regarding `Clc1ccc(C=CC2=NCCc3cc(OCc4ccccc4)ccc32)cc1` [Example 57, 6-Benzyloxy-1-(4-chlorostyryl)-3,4-dihydroisoquinoline], the minimum inhibitory concentration (MIC) with Candida albicans came to 6.2 µg/mL.
For the molecule `CCCOc1ccc2c(c1)CCN=C2/C=C/C1CCCCC1` [Example 6, (E)-1-(2-Cyclohexylvinyl)-3,4-dihydro-6-propyloxyisoquinoline], the concentration for half-maximal inhibition (IC50) in the assay with Trichomonas vaginalis (setting [1]) and in the assay on Trichomonas vaginalis (setting [2]) was 0.4 µg/mL (≈ 1.34 µM) each time. Also, in the assay on Candida albicans, the MIC amounted to 25 µg/mL.
In the case of `CC(C)(C)c1ccc(COc2ccc3c(c2)CCN=C3C=Cc2ccccc2)cc1` [Example 80, 6-(4-t-Butylbenzyloxy)-3,4-dihydro-1-styrylisoquinoline], the 50% inhibitory concentration (IC50) in the assay with Trichomonas vaginalis (setting [1]) turned out to be 2.5 µg/mL (≈ 6.32 µM); with Trichomonas vaginalis (setting [2]), 2.4 µg/mL (≈ 6.07 µM).
The matching figures for `CCCCCCOc1ccc2c(c1)CCN=C2C=Cc1ccccc1` [Example 74, 6-Hexyloxy-3,4-dihydro-1-styrylisoquinoline]: 3.3 µg/mL (≈ 9.9 µM) and 0.9 µg/mL (≈ 2.7 µM).
